Measured values: US7429660B2, “ATM inhibitors” (Kudos Pharmaceuticals Limited, priority 2003, dated 2008)

Target: T1, ATM protein immunoprecipitated from HeLa cell nuclear extract (Homo sapiens, UniProt Q13315)
T1 construct: ATM protein was immunoprecipitated from HeLa cell nuclear extract; endogenous in cells; host or cells: HeLa cell nuclear extract (immunoprecipitated with rabbit polyclonal anti-ATM antiserum)
Assay: In vitro ATM inhibition assay (phosphorylation of GSTp53N66 on serine 15, chemiluminescent detection); also: tested normally from 100 µM down to 0.1 nM
Format: biochemical
Details: read-out: IC50 values (the concentration at which 50% of the enzyme activity is inhibited), ATM inhibition
Protocol: In order to assess the inhibitory action of the compounds against ATM in vitro, the following assay was used to determine IC50 values. ATM protein was immunoprecipitated from HeLa cell nuclear extract using rabbit polyclonal anti-sera raised to the C-terminal ˜500 amino-acid residues of the human ATM protein. […] 10 μl of immunoprecipitated ATM in Buffer C (50 mM Hepes, pH 7.4, 6 mM MgCl2, 150 mM NaCl, 0.1 mM sodium orthovanadate, 4 mM MnCl2, 0.1 mM dithiothreitol, 10% glycerol) was added to 32.5 μl of buffer C containing 1 μg of the ATM substrate GSTp53N66 in a V-bottomed 96 well polypropylene plate. The GSTp53N66 substrate is the amino terminal 66 amino acid residues of human wild type p53 fused to glutathione S-transferase. […] Varying concentrations of inhibitor were then added. […] After 10 minutes of incubation at 37° C., the reactions were initiated by the addition of 5 μl of 500 μM Na-ATP. After 1 hour with shaking at 37° C., 150 μl of phosphate buffered saline (PBS) was added to the reaction and the plate centrifuged at 1500 rpm for 10 minutes. 5 μl of the reaction was then transferred to a 96 well opaque white plate containing 45 μl of PBS to allow the GSTp53N66 substrate to bind to the plate wells. The plate was covered and incubated at room temperature for 1 hour with shaking before discarding the contents. The plate wells were washed twice by the addition of PBS prior to the addition of 3% (w/v) bovine serum albumin (BSA) in PBS. The plate was incubated at room temperature for 1 hour with shaking before discarding the contents and washing twice with PBS. To the wells, 50 μl of a 1:10,000 dilution of primary phosphoserine-15 antibody (Cell Signaling Technology, #9284L) in 3% BSA/PBS was added to detect the phosphorylation event on the serine 15 residue of p53 elicited by the ATM kinase. […] The wells were then washed four times with PBS before the addition of chemiluminescence reagent (NEN Renaissance, NEL105). The plate was then shaken briefly, covered with a transparent plate seal and transferred to a TopCount NXT for chemiluminescent counting. Counts per second, following a one second counting time, were recorded for each reaction.
The enzyme activity for each compound is then calculated using the following equation:
[formula] Results In vitro ATM assays
Compounds were assayed for ATM inhibition activity using the method described above. […] These are determined over a range of different concentrations, normally from 100 μM down to 0.1 nM. Such IC50 values are used as comparative values to identify increased compound potencies.

T1 sequence (Q13315 whole entry): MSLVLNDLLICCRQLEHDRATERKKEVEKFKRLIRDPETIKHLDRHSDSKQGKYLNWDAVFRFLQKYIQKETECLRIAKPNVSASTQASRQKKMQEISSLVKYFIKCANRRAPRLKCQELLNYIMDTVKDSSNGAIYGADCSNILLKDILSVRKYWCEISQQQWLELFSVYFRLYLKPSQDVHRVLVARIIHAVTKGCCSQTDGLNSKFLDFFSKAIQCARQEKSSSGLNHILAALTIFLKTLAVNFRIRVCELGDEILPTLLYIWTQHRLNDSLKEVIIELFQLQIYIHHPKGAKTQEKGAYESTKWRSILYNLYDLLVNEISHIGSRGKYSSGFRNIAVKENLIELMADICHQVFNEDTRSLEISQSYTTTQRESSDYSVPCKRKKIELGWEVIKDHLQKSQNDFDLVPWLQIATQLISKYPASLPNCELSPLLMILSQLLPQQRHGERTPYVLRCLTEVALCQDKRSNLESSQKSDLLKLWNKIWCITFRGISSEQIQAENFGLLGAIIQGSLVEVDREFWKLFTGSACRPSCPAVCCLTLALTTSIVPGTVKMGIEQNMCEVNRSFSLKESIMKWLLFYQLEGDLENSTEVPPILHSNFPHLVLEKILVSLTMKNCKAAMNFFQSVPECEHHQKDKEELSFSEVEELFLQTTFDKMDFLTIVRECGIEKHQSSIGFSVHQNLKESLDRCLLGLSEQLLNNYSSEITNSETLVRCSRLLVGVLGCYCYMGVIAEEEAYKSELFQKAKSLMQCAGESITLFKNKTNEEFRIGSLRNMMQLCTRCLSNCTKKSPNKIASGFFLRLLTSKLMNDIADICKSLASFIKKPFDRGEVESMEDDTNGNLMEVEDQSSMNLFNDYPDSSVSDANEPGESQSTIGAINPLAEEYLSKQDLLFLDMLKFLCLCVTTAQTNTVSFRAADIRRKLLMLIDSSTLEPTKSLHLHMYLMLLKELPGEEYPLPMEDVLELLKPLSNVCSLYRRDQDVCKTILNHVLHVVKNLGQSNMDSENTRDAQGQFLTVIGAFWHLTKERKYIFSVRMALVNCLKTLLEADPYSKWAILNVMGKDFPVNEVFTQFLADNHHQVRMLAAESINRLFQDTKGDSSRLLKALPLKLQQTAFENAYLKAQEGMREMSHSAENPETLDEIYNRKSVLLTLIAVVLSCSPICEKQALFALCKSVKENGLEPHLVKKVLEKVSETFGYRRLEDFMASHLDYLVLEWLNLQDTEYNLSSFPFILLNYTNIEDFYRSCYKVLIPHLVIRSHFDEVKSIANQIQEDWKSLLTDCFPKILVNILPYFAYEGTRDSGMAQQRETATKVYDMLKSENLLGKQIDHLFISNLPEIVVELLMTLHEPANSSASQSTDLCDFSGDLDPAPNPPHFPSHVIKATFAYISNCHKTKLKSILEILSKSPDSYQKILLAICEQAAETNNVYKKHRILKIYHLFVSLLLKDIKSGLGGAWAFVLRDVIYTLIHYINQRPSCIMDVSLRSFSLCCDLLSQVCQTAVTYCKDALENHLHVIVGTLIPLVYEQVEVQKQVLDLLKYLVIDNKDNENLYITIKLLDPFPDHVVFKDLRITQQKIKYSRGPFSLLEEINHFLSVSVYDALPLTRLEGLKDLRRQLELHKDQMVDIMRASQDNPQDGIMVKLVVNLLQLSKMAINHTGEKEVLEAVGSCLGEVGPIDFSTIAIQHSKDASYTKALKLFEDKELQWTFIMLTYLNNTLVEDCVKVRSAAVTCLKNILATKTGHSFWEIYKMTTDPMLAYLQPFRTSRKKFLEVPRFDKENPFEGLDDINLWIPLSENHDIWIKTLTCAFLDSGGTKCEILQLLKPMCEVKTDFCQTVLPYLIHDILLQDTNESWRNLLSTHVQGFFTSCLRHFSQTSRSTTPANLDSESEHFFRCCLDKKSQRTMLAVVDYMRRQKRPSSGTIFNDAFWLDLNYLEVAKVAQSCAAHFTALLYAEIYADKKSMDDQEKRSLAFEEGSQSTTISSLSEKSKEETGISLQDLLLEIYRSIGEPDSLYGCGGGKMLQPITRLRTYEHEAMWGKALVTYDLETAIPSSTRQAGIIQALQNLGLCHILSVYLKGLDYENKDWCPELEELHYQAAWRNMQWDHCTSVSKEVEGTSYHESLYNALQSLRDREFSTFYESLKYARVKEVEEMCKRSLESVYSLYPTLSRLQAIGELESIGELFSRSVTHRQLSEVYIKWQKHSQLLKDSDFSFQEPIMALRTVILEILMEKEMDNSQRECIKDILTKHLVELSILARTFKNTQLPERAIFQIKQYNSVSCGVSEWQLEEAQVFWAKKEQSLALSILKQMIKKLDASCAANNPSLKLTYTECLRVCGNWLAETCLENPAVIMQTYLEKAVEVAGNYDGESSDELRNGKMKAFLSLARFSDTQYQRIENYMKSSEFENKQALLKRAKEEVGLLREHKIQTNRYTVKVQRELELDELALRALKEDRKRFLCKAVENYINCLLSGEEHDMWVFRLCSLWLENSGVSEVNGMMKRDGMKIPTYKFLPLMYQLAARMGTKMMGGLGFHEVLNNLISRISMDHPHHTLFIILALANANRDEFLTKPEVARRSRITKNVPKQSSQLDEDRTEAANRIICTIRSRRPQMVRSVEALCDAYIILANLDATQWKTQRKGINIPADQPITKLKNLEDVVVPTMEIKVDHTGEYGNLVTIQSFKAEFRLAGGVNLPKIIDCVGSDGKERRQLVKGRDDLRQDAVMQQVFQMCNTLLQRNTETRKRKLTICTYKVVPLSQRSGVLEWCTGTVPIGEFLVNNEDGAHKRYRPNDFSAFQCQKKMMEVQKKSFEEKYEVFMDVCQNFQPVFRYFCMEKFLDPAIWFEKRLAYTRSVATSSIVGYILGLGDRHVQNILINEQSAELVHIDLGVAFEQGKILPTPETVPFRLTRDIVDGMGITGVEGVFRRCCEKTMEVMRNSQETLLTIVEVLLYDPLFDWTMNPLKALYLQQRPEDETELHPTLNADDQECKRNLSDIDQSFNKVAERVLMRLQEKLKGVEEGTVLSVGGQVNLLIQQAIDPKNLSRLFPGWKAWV

SMILES | IC50
O=C(CCN1CCCCCC1)Nc1ccc2c(c1)Sc1cccc(-c3cc(=O)cc(N4CCOCC4)o3)c1S2 [Compound 101] | < 0.2 µM
NC(=O)CNCCC(=O)Nc1ccc2c(c1)Sc1cccc(-c3cc(=O)cc(N4CCOCC4)o3)c1S2 [Compound 125] | < 0.2 µM
CN(C)Cc1ccc(CSCCNCCOc2ccc(-c3cc(=O)cc(N4CCOCC4)o3)c3c2Sc2ccccc2S3)o1 [Compound 170] | < 0.2 µM
CCN1CCN(CCC(=O)Nc2ccc3c(c2)Cc2cccc(-c4cc(=O)cc(N5CCOCC5)o4)c2S3)CC1 [Compound 352] | < 0.2 µM
CCCCNCCOc1ccc2c(c1)Sc1cccc(-c3cc(=O)cc(N4CCOCC4)o3)c1S2 [Compound 382] | < 0.2 µM
O=C1NCCN1CCNCCCN1c2ccccc2Sc2c(-c3cc(=O)cc(N4CCOCC4)o3)cccc21 [Compound 287] | < 0.2 µM
COCCN1CCN(CC(=O)Nc2ccc3c(c2)Cc2cccc(-c4cc(=O)cc(N5CCOCC5)o4)c2S3)CC1 [Compound 339] | < 0.2 µM
O=C(CNCCN1CCCCC1)Nc1ccc2c(c1)Sc1cccc(-c3cc(=O)cc(N4CCOCC4)o3)c1S2 [Compound 88] | < 0.2 µM
O=c1cc(-c2cccc3c2Sc2ccccc2N3CCCNCCN2CCCC2)oc(N2CCOCC2)c1 [Compound 264] | < 0.2 µM
O=C(CCSc1ncn[nH]1)Nc1ccc2c(c1)Sc1cccc(-c3cc(=O)cc(N4CCOCC4)o3)c1S2 [Compound 104] | < 0.2 µM
O=C(CCN1CCCNCC1)Nc1ccc2c(c1)Sc1cccc(-c3cc(=O)cc(N4CCOCC4)o3)c1S2 [Compound 100] | < 0.2 µM
O=C(CN1CCCC1)Nc1ccc2c(c1)Sc1cccc(-c3cc(=O)cc(N4CCOCC4)o3)c1S2 [Compound 59] | < 0.2 µM
CCN(CCC(=O)Nc1ccc2c(c1)Sc1cccc(-c3cc(=O)cc(N4CCOCC4)o3)c1S2)Cc1ccccc1 [Compound 111] | < 0.2 µM
O=c1cc(-c2cccc3c2Sc2ccccc2N3CCCNCC2CCCCCC2O)oc(N2CCOCC2)c1 (centres unmarked) [Compound 326] | < 0.2 µM
O=c1cc(-c2cccc3c2Sc2ccccc2N3CCCNCCN2CCN(Cc3ccccc3)CC2)oc(N2CCOCC2)c1 [Compound 274] | < 0.2 µM
CCN(CC)CCCNCCCN1c2ccccc2Sc2c(-c3cc(=O)cc(N4CCOCC4)o3)cccc21 [Compound 277] | < 0.2 µM
O=c1cc(-c2cccc3c2Sc2ccccc2N3CCCNCC2CCCCC2O)oc(N2CCOCC2)c1 (centres unmarked) [Compound 328] | < 0.2 µM
O=C(COc1ccc2c(c1)Cc1cccc(-c3cc(=O)cc(N4CCOCC4)o3)c1S2)NC1CCC1 [Compound 499] | < 0.2 µM
CC1(C)OCC(CNCCCN2c3ccccc3Sc3c(-c4cc(=O)cc(N5CCOCC5)o4)cccc32)O1 (centres unmarked) [Compound 321] | < 0.2 µM
CN(C)CCCNCCCN1c2ccccc2Sc2c(-c3cc(=O)cc(N4CCOCC4)o3)cccc21 [Compound 284] | < 0.2 µM

SMILES | IC50
CCCNS(=O)(=O)c1ccc2c(c1)Cc1cccc(-c3cc(=O)cc(N4CCOCC4)o3)c1S2 [Compound 458] | < 0.2 µM
O=c1cc(-c2ccc(OCCNCCN3CCN(Cc4ccccc4)CC3)c3c2Sc2ccccc2S3)oc(N2CCOCC2)c1 [Compound 164] | < 0.2 µM
NCCNCCC(=O)Nc1ccc2c(c1)Sc1cccc(-c3cc(=O)cc(N4CCOCC4)o3)c1S2 [Compound 97] | < 0.2 µM
O=C(CN1CCN(c2ccccn2)CC1)Nc1ccc2c(c1)Sc1cccc(-c3cc(=O)cc(N4CCOCC4)o3)c1S2 [Compound 82] | < 0.2 µM
O=C(COc1ccc2c(c1)Sc1cccc(-c3cc(=O)cc(N4CCOCC4)o3)c1S2)N1CCN(c2ccccn2)CC1 [Compound 426] | < 0.2 µM
O=C(CCN1CCCN(CCO)CC1)Nc1ccc2c(c1)Sc1cccc(-c3cc(=O)cc(N4CCOCC4)o3)c1S2 [Compound 129] | < 0.2 µM
CCOCCCNCCCN1c2ccccc2Sc2c(-c3cc(=O)cc(N4CCOCC4)o3)cccc21 [Compound 286] | < 0.2 µM
O=c1cc(-c2cccc3c2Sc2ccccc2N3CCCNN2CCCCCC2)oc(N2CCOCC2)c1 [Compound 261] | < 0.2 µM
CC(C)N1CCN(CC(=O)Nc2ccc3c(c2)Sc2cccc(-c4cc(=O)cc(N5CCOCC5)o4)c2S3)CC1 [Compound 80] | < 0.2 µM
O=c1cc(-c2cccc3c2Sc2ccccc2N3CCCN2CCN(c3ccccn3)CC2)oc(N2CCOCC2)c1 [Compound 290] | < 0.2 µM
CC(C)NC(=O)CN1CCN(C(=O)c2ccc3c(c2)Sc2cccc(-c4cc(=O)cc(N5CCOCC5)o4)c2S3)CC1 [Compound 14] | < 0.2 µM
C[C@@H]1COC[C@H](C)N1CCCOc1ccc(-c2cc(=O)cc(N3CCOCC3)o2)c2c1Sc1ccccc1S2 [Compound 181] | < 0.2 µM
O=c1cc(-c2cccc3c2Sc2ccc(S(=O)(=O)NCC4CCCO4)cc2C3)oc(N2CCOCC2)c1 (centres unmarked) [Compound 455] | < 0.2 µM
Cc1noc(C)c1C(=O)Nc1ccc2c(c1)Sc1cccc(-c3cc(=O)cc(N4CCOCC4)o3)c1S2 [Compound 35] | < 0.2 µM
O=c1cc(-c2cccc3c2Sc2ccccc2N3CCCN2CCN(CCOCCO)CC2)oc(N2CCOCC2)c1 [Compound 292] | < 0.2 µM
CCNCCCOc1ccc(-c2cc(=O)cc(N3CCOCC3)o2)c2c1Sc1ccccc1S2 [Compound 172] | < 0.2 µM
Cc1ccccc1N1CCN(CCCN2c3ccccc3Sc3c(-c4cc(=O)cc(N5CCOCC5)o4)cccc32)CC1 [Compound 289] | < 0.2 µM
O=c1cc(-c2cccc3c2Sc2ccc(S(=O)(=O)N(CCO)CCO)cc2C3)oc(N2CCOCC2)c1 [Compound 490] | < 0.2 µM
COCCN(CCOC)C(=O)COc1ccc2c(c1)Sc1cccc(-c3cc(=O)cc(N4CCOCC4)o3)c1S2 [Compound 445] | < 0.2 µM
O=C(CCNCC1CCCO1)Nc1ccc2c(c1)Sc1cccc(-c3cc(=O)cc(N4CCOCC4)o3)c1S2 (centres unmarked) [Compound 107] | < 0.2 µM

SMILES | IC50
O=c1cc(-c2cccc3c2Sc2ccc(S(=O)(=O)N4CCCC4)cc2C3)oc(N2CCOCC2)c1 [Compound 468] | < 0.2 µM
CN1CCCN(C(=O)COc2ccc3c(c2)Sc2cccc(-c4cc(=O)cc(N5CCOCC5)o4)c2S3)CC1 [Compound 442] | < 0.2 µM
COCCCNCCCN1c2ccccc2Sc2c(-c3cc(=O)cc(N4CCOCC4)o3)cccc21 [Compound 285] | < 0.2 µM
O=c1cc(-c2cccc3c2Sc2ccccc2N3CCCNCCc2cnc[nH]2)oc(N2CCOCC2)c1 [Compound 271] | < 0.2 µM
O=C(CSc1ncn[nH]1)Nc1ccc2c(c1)Sc1cccc(-c3cc(=O)cc(N4CCOCC4)o3)c1S2 [Compound 65] | < 0.2 µM
COc1cc(C(=O)Nc2ccc3c(c2)Sc2cccc(-c4cc(=O)cc(N5CCOCC5)o4)c2S3)cc(OC)c1OC [Compound 40] | < 0.2 µM
CN1CCN(CCC(=O)Nc2ccc3c(c2)Sc2cccc(-c4cc(=O)cc(N5CCOCC5)o4)c2S3)CC1 [Compound 94] | < 0.2 µM
CCCCNCCCN1c2ccccc2Sc2c(-c3cc(=O)cc(N4CCOCC4)o3)cccc21 [Compound 245] | < 0.2 µM
COc1ccccc1C(=O)Nc1ccc2c(c1)Sc1cccc(-c3cc(=O)cc(N4CCOCC4)o3)c1S2 [Compound 31] | < 0.2 µM
O=C(COc1ccc2c(c1)Cc1cccc(-c3cc(=O)cc(N4CCOCC4)o3)c1S2)NCC(F)(F)F [Compound 496] | < 0.2 µM
CN(C)CCN1CCN(CCC(=O)Nc2ccc3c(c2)Sc2cccc(-c4cc(=O)cc(N5CCOCC5)o4)c2S3)CC1 [Compound 124] | < 0.2 µM
O=C(COc1ccc2c(c1)Sc1cccc(-c3cc(=O)cc(N4CCOCC4)o3)c1S2)N1CCN(CCO)CC1 [Compound 436] | < 0.2 µM
O=C(COc1ccc2c(c1)Sc1cccc(-c3cc(=O)cc(N4CCOCC4)o3)c1S2)NC(CO)(CO)CO [Compound 410] | < 0.2 µM
O=C(COc1ccc2c(c1)Sc1cccc(-c3cc(=O)cc(N4CCOCC4)o3)c1S2)N1CCN(C(=O)c2ccco2)CC1 [Compound 414] | < 0.2 µM
O=c1cc(-c2cccc3c2Sc2ccccc2N3CCCNCC2CCCCC2)oc(N2CCOCC2)c1 [Compound 253] | < 0.2 µM
O=C(CCNCCO)Nc1ccc2c(c1)Sc1cccc(-c3cc(=O)cc(N4CCOCC4)o3)c1S2 [Compound 96] | < 0.2 µM
O=C(Nc1ccc2c(c1)Sc1cccc(-c3cc(=O)cc(N4CCOCC4)o3)c1S2)c1ccncc1 [Compound 30] | < 0.2 µM
O=C(COc1ccc2c(c1)Sc1cccc(-c3cc(=O)cc(N4CCOCC4)o3)c1S2)NCCN1CCNC1=O [Compound 441] | < 0.2 µM
O=c1cc(-c2cccc3c2Sc2ccccc2N3CCCN2CCCCCC2)oc(N2CCOCC2)c1 [Compound 260] | < 0.2 µM
